The values below come from PubChem BioAssay (NCI).

Assay in all cases: growth of human tumour cells (NCI), 48 h
Assay [1] has as its system COLO 205 colon.
The test system of assay [2] is K-562 leukemia.
The test system of assay [3] is LOX IMVI melanoma.
The subject of assay [4] is MALME-3M melanoma.
For assay [5], the system named is NCI-H522 lung.
Assay [6] concerns SF-295 CNS.
Assay [7] concerns SK-MEL-28 melanoma.
For assay [8], the system named is SNB-19 CNS.
Assay [9] has as its system UACC-257 melanoma.
In assay [10] the test system is UACC-62 melanoma.

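Each compound was tested at five concentrations against cells in 96-well plates for 48 hours. GI50 is the concentration that inhibits growth by half. TGI marks complete inhibition of growth.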

For the compound `Cn1c(=O)c(Oc2cccc(F)c2)cc2cnc(NC3CCOCC3)nc21`, the GI50 in assay [1], in assay [2], in [3], in assay [4], in assay [5] and in assay [6] was over 25 µM throughout. Moreover, the GI50 in assay [7], in assay [8], in [9] and in assay [10] was over 25 µM each time. The TGI in [1], in assay [2], in assay [3], in assay [4], in assay [5] and in assay [6] was over 25 µM throughout. Besides, the TGI in [7], in [8], in assay [9] and in assay [10] was over 25 µM in each case.
For `N#Cc1c2ccccc2c2n1-c1ccccc1OC(c1ccccc1)C2=O` (stereo not given), the GI50 in assay [1] was 4.67 µM; in assay [2] it was 3.19 µM; in assay [3], 2.45 µM; in [4], 11.7 µM; in assay [5] it was 2.06 µM; in assay [6] it was 3.42 µM. The GI50 is 8.67 µM in [7], 4.25 µM in assay [8], 3.82 µM in [9] and 3.81 µM in assay [10]. The TGI is 16.4 µM in assay [1]; 13.9 µM in assay [2]; 6.82 µM in assay [3]; 30.6 µM in assay [4]; 4.72 µM in assay [5]; 34.4 µM in assay [6]. In addition, the TGI in [7] is 27.5 µM; in [8], over 100 µM; in [9], 17.6 µM; in assay [10], 18 µM.
Turning to `O=Nc1c(-c2cccc([N+](=O)[O-])c2)nc2cnccn12`, the TGI in assay [1] was 66.7 µM; in assay [2], 49.2 µM; in [3], 28.5 µM; in assay [4], 56.5 µM; in assay [5] it was 33.3 µM; in assay [6] it was over 100 µM. For the same compound, the TGI is 50.3 µM in assay [7], over 100 µM in assay [8], 41 µM in [9] and 36.8 µM in assay [10].
As to `COC(=O)Nc1nc2ccc(Oc3ccc(NC(=O)Nc4cccc(Br)c4)cc3)cc2[nH]1`, the GI50 in assay [1] is 1.48 µM; in [2] it was 0.162 µM; in assay [3], 2.32 µM; in [4], 1.41 µM; in assay [5], 0.351 µM; in assay [6], 1.18 µM. Further, the GI50 was 2.53 µM in [7], 8.31 µM in [8], 1.95 µM in [9] and 0.906 µM in assay [10]. For the same compound, the TGI in assay [1] is 7 µM; in [2], over 12 µM; in [3], over 11.9 µM; in [4] it was 9.14 µM; in [5] it was 2.7 µM; in [6], over 19.2 µM. Further, the TGI in assay [7] is 7.7 µM; in [8], over 25 µM; in [9], over 16 µM; in [10], 7.41 µM.
Turning to `CCCCCCCCCCCCCC[P+](CCCCCC)(CCCCCC)CCCCCC`, the GI50 in [1] was 0.144 µM; in assay [2], 0.0232 µM; in [3] it was 0.0583 µM; in assay [4], 0.0271 µM; in assay [5], 0.105 µM; in assay [6], 0.0783 µM. The GI50 in [7] was 0.101 µM; in [8], 0.0688 µM; in assay [9], 0.0755 µM; in assay [10], 0.0422 µM. The TGI in assay [1] is 2.08 µM; in assay [2], 0.0858 µM; in assay [3] it was 0.497 µM; in assay [4] it was 0.0721 µM; in [5] it was 0.956 µM; in assay [6], 0.432 µM. Moreover, the TGI in assay [7] is 1.44 µM; in assay [8], over 100 µM; in [9], 0.79 µM; in [10] it was 1.9 µM.
For the compound `C=C(C)C(=O)OC1CC2(C)OC2CC(OC(C)=O)/C(C)=C/C2OC(=O)C(=C)C21` (stereo not given), the TGI came to 3.42 µM in [1]; 4.62 µM in assay [2]; 7.67 µM in assay [3]; 3.23 µM in [4]; 0.851 µM in assay [5]; 30.3 µM in [6]. In addition, the TGI in assay [7] is 1.94 µM; in [8] it was 28.7 µM; in assay [9], 18.5 µM; in [10], 17.8 µM.
`Cc1ccccc1S(=O)(=O)N1[C@H](c2ccc(Cl)cc2)C(C(=O)N[C@@H](Cc2ccccc2)C(N)=O)=C[C@@H]1C(C)(C)C`: the GI50 is 6.8 µM in [1]; 7.1 µM in assay [2]; 6.98 µM in assay [3]; 10.2 µM in assay [4]; 7.92 µM in assay [5]; 2.8 µM in [6]. In addition, the GI50 in [7] is 5.34 µM; in assay [8], 6.07 µM; in assay [9], 8.31 µM; in [10], 5.76 µM. The TGI in [1] worked out at 14.3 µM; in assay [2] it was 35.4 µM; in assay [3], 14 µM; in assay [4], 20.1 µM; in assay [5] it was 15.6 µM; in assay [6], 10 µM. The TGI came out at 12 µM in [7], 17.3 µM in [8], 17.2 µM in assay [9] and 12.8 µM in assay [10].
Regarding `NS(=O)(=O)c1ccc(C2C3=C(CCCC3=O)OC3=C2C(=O)c2ccccc2C3=O)cc1` (stereo not given), the GI50 is 0.348 µM in assay [1]; 0.46 µM in assay [2]; 0.136 µM in assay [3]; 0.319 µM in assay [4]; 0.174 µM in assay [5]; 1.57 µM in [6]. Further, the GI50 in assay [7] is 1.42 µM; in assay [8], 1.24 µM; in [9], 0.275 µM; in assay [10], 0.24 µM. Also, the TGI in assay [1] was 1.29 µM; in assay [2], 2.35 µM; in [3], 1.04 µM; in assay [4], 1.09 µM; in assay [5], 0.563 µM; in assay [6], 3.31 µM. Besides, the TGI came out at 2.92 µM in assay [7], 2.52 µM in [8], 0.922 µM in assay [9] and 0.567 µM in [10].
